Like-named read-outs stand apart in the source and are kept apart here.
Assays:
HACAT cells = assay: qHTS cell viability (CellTiter-Glo, 72 h; primary screen), control cell line; format: cell-based, human
UISO cells (VN-MCC) = assay: qHTS cell viability (CellTiter-Glo, 72 h; primary and follow-up small molecule screen); format: cell-based, human
[1] = test system: MCC cell lines (WAGA, MKL-1, MKL-2, MCC13, MCC26, UISO); assay: qHTS cell viability, all six MCC cell lines as a group (mean AUC, MCC.avg); format: cell-based, human
NIH-3T3 cells = assay: qHTS cell viability (CellTiter-Glo, 72 h; primary screen), control cell line; format: cell-based, mouse
HEK293T cells = assay: as above; format: cell-based, human
CRL-7250 cells = assay: as above; format: cell-based
MCC13 cells (VN-MCC) = assay: qHTS cell viability (CellTiter-Glo, 72 h; primary and follow-up small molecule screen); format: cell-based, human
[2] = test system: six MCC cell lines and four control cell lines; assay: qHTS cell viability, all 10 cell lines screened; format: cell-based
MKL-2 cells (VP-MCC) = assay: qHTS cell viability (CellTiter-Glo, 72 h; primary and follow-up small molecule screen); format: cell-based, human
MKL-1 cells (VP-MCC) = assay: as above; format: cell-based, human
[3] = test system: VP-MCC cell lines (WAGA, MKL-1, MKL-2); assay: qHTS cell viability, VP-MCC cell lines as a group (mean AUC, VP.MCC.avg); format: cell-based, human
[4] = test system: control cell lines (HACAT, HEK293T, CRL-7250, NIH-3T3); assay: qHTS cell viability, control cell lines as a group (mean AUC, Control.avg); format: cell-based
[5] = test system: VN-MCC cell lines (MCC13, MCC26, UISO); assay: qHTS cell viability, VN-MCC cell lines as a group (mean AUC, VN.MCC.avg); format: cell-based, human
WAGA cells (VP-MCC) = assay: qHTS cell viability (CellTiter-Glo, 72 h; primary and follow-up small molecule screen); format: cell-based, human
MCC26 cells (VN-MCC) = assay: as above; format: cell-based, human

Cl.Oc1ccc2c3c1O[C@H]1[C@@H](O)C=C[C@H]4[C@@H](C2)NCC[C@@]341 [N-Normorphine hydrochloride]
HACAT_AUC (HACAT cells): 477.868
UISO_AUC (UISO cells (VN-MCC)): 440.259
MCC_Avg_AUC [1]: 427.82
NIH3T3_AUC (NIH-3T3 cells): 490.376
HEK293T_AUC (HEK293T cells): 480.826
CRL7250_AUC (CRL-7250 cells): 485.195
MCC13_AUC (MCC13 cells (VN-MCC)): 466.371
Control-MCC [2]: 55.7462
MKL2_AUC (MKL-2 cells (VP-MCC)): 420.551
MKL1_AUC (MKL-1 cells (VP-MCC)): 418.832
Control-VP-MCC [3]: 66.2273
VP-MCC_Avg_AUC [3]: 417.339
Control_Avg_AUC [4]: 483.566
Control-VN-MCC [5]: 45.2651
VN-MCC_Avg_AUC [5]: 438.301
WAGA_AUC (WAGA cells (VP-MCC)): 412.634
MCC26_AUC (MCC26 cells (VN-MCC)): 408.273

CC(O)C(=O)O.CCOc1ccc2nc3cc(N)ccc3c(N)c2c1.O [Ethacridine lactate hydrate]
HACAT_AUC (HACAT cells): 492.059
UISO_AUC (UISO cells (VN-MCC)): 374.889
MCC_Avg_AUC [1]: 394.957
NIH3T3_AUC (NIH-3T3 cells): 456.142
HEK293T_AUC (HEK293T cells): 374.537
CRL7250_AUC (CRL-7250 cells): 429.434
MCC13_AUC (MCC13 cells (VN-MCC)): 439.497
Control-MCC [2]: 43.0859
MKL2_AUC (MKL-2 cells (VP-MCC)): 356.151
MKL1_AUC (MKL-1 cells (VP-MCC)): 391.16
Control-VP-MCC [3]: 76.9894
VP-MCC_Avg_AUC [3]: 361.054
Control_Avg_AUC [4]: 438.043
Control-VN-MCC [5]: 9.1824
VN-MCC_Avg_AUC [5]: 428.861
WAGA_AUC (WAGA cells (VP-MCC)): 335.85
MCC26_AUC (MCC26 cells (VN-MCC)): 472.196

CCC(=O)O[C@@H]1C=C2CCC3C(CCC4(C)C3CC[C@@H]4OC(=O)CC)C2CC1 (stereo partly shown) [Bolandiol dipropionate]
HACAT_AUC (HACAT cells): 443.174
UISO_AUC (UISO cells (VN-MCC)): 526.911
MCC_Avg_AUC [1]: 449.182
NIH3T3_AUC (NIH-3T3 cells): 491.81
HEK293T_AUC (HEK293T cells): 471.071
CRL7250_AUC (CRL-7250 cells): 480.859
MCC13_AUC (MCC13 cells (VN-MCC)): 478.899
Control-MCC [2]: 22.5458
MKL2_AUC (MKL-2 cells (VP-MCC)): 411.71
MKL1_AUC (MKL-1 cells (VP-MCC)): 411.821
Control-VP-MCC [3]: 69.3739
VP-MCC_Avg_AUC [3]: 402.354
Control_Avg_AUC [4]: 471.728
Control-VN-MCC [5]: -24.2823
VN-MCC_Avg_AUC [5]: 496.011
WAGA_AUC (WAGA cells (VP-MCC)): 383.532
MCC26_AUC (MCC26 cells (VN-MCC)): 482.222

C#C[C@]1(OC(C)=O)CC[C@H]2[C@@H]3CCC4=CC(=NO)CC[C@@H]4[C@H]3CC[C@@]21CC (mixture of isomers) [Norgestimate]
HACAT_AUC (HACAT cells; NPC library, qHTS dose-response AUC, HACAT control): 469.318
UISO_AUC (UISO cells (VN-MCC); NPC library, qHTS dose-response AUC, UISO): 417.397
MCC_Avg_AUC ([1]; NPC library, mean AUC of all 6 MCC cell lines): 409.11
MCC_Avg_AUC ([1]; NPC library, mean AUC of six MCC cell lines): 409.109
NIH3T3_AUC (NIH-3T3 cells; NPC library, qHTS dose-response AUC, NIH3T3 control): 462.903
HEK293T_AUC (HEK293T cells; NPC library, qHTS dose-response AUC, HEK293T control): 418.546
HEK293T_AUC (HEK293T cells; NPC library; qHTS dose-response AUC, HEK293T control): 418.545
CRL7250_AUC (CRL-7250 cells; NPC library, qHTS dose-response AUC, CRL7250 control): 491.565
MCC13_AUC (MCC13 cells (VN-MCC); NPC library, qHTS dose-response AUC, MCC13): 443.22
Control-MCC ([2]; NPC library, therapeutic window: Control avg AUC minus MCC avg AUC): 51.4735
MKL2_AUC (MKL-2 cells (VP-MCC); NPC library, qHTS dose-response AUC, MKL2): 415.787
MKL1_AUC (MKL-1 cells (VP-MCC); NPC library, qHTS dose-response AUC, MKL1): 398.179
Control-VP-MCC ([3]; Control AUC minus VP-MCC AUC): 61.2604
VP-MCC_Avg_AUC ([3]; NPC library, mean AUC of VP-MCC cell lines): 399.323
Control-VP-MCC ([3]; NPC library, therapeutic window: Control avg AUC minus VP-MCC avg AUC): 61.2604
Control_Avg_AUC ([4]; NPC library, mean AUC of control cell lines): 460.583
Control-VN-MCC ([5]; Control AUC minus VN-MCC AUC): 41.6867
VN-MCC_Avg_AUC ([5]; NPC library, mean AUC of VN-MCC cell lines): 418.896
Control-VN-MCC ([5]; NPC library, therapeutic window: Control avg AUC minus VN-MCC avg AUC): 41.6867
WAGA_AUC (WAGA cells (VP-MCC); NPC library, qHTS dose-response AUC, WAGA): 384.002
MCC26_AUC (MCC26 cells (VN-MCC); NPC library, qHTS dose-response AUC, MCC26): 396.072
MCC26_AUC (MCC26 cells (VN-MCC); NPC library; qHTS dose-response AUC, MCC26): 396.073
